Experimental data from ChEMBL document CHEMBL3044865, “Herbicidal Activity and Characteristics of Pyraflufen-ethyl for Controlling Broad-leaved Weeds in Cereals” (J Pestic Sci, 2002).
Activity calls are given as the source filed them. The calls are words filed in the database; no cut-off is given here.

Legend:
[1] = target: T1, Protoporphyrinogen oxidase 2 (Spinacia oleracea) (UniProt Q94IG7); test: Inhibition of Stellaria media protoporphyinogen oxidase assessed as herbicidal activity at 10 g/ha measured after 21 days after treatment under greenhouse by time-course analysis; set-up: scale not given: the % may be the effect or the level left
T1 sequence (whole entry): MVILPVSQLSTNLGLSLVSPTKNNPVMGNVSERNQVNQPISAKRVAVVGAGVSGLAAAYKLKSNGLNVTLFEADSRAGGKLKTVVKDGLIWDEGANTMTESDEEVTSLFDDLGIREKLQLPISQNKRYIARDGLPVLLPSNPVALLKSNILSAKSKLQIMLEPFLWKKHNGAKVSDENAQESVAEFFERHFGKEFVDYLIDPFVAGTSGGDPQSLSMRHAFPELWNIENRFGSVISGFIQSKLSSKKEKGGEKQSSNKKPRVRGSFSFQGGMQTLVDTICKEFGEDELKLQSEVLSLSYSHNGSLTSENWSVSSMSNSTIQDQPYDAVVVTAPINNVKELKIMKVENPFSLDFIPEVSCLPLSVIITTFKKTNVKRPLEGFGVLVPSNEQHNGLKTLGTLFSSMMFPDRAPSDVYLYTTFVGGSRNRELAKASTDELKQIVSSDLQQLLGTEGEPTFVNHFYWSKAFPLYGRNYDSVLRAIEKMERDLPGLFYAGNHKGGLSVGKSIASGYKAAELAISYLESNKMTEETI

[2] = target: T2, Protoporphyrinogen oxidase, chloroplastic (Nicotiana tabacum) (UniProt O24163); test: Inhibition of Veronica hederaefolia protoporphyrinogen oxidase by post-emergence herbicidal activity assay; conditions: Veronica hederifolia
T2 sequence (whole entry): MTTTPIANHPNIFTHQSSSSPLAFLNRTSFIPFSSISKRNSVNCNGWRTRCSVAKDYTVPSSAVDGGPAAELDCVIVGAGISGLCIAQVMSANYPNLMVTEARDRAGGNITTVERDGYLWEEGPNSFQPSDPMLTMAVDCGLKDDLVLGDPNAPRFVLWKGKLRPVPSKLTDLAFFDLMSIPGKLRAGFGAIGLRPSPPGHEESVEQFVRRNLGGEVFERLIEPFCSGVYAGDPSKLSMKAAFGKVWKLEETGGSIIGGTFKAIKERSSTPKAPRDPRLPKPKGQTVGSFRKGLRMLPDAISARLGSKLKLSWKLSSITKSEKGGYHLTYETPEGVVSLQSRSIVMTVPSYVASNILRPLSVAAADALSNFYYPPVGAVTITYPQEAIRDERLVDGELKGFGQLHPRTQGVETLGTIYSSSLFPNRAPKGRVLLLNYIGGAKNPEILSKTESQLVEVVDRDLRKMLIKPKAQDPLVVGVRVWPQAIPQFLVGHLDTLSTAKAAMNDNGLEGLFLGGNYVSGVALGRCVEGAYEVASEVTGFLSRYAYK

[3] = target: T3, Protoporphyrinogen oxidase (Medicago truncatula) (UniProt G7L3C0); test: Inhibition of Viola arvensis protoporphyrinogen oxidase by post-emergence herbicidal activity assay
T3 sequence (whole entry): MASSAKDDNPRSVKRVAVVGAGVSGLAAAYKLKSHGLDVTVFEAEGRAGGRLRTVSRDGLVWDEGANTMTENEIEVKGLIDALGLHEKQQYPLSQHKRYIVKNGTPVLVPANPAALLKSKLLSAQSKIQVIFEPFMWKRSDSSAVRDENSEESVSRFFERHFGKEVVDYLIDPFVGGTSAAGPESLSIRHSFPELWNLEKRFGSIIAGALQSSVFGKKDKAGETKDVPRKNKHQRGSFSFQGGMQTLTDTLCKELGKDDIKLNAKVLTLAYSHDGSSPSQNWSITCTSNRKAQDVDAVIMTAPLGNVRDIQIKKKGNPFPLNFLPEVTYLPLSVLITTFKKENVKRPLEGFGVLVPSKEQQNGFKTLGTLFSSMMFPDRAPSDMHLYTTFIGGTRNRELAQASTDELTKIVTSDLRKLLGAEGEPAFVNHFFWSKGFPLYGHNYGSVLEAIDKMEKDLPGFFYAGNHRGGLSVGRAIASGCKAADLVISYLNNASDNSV

[4] = target: T1, Protoporphyrinogen oxidase 2 (Spinacia oleracea); test: Inhibition of Stellaria media protoporphyrinogen oxidase by post-emergence herbicidal activity assay
[5] = target: T4, Protoporphyrinogen IX oxidase (Cichorium intybus) (UniProt Q9SPL6); test: Inhibition of Tripleurospermum maritimum subsp. inodorum protoporphyrinogen oxidase by post-emergence herbicidal activity assay
T4 sequence (whole entry): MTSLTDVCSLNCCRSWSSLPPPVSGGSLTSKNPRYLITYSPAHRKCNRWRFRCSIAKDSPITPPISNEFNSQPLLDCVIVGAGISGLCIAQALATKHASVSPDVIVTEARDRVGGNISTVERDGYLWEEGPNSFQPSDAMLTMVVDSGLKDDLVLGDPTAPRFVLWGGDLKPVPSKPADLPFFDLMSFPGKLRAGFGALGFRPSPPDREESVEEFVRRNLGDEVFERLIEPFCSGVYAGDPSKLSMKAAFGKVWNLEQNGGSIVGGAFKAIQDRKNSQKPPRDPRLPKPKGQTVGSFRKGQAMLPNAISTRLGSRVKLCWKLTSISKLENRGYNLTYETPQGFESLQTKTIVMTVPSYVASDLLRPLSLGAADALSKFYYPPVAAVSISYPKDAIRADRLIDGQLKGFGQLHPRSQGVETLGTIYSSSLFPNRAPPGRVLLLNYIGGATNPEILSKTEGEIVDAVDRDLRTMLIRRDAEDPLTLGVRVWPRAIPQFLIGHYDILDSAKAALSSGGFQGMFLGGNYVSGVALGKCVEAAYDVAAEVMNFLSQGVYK

[6] = target: T2, Protoporphyrinogen oxidase, chloroplastic (Nicotiana tabacum); test: Inhibition of Galium aparine protoporphyrinogen oxidase by post-emergence herbicidal activity assay
[7] = target: T1, Protoporphyrinogen oxidase 2 (Spinacia oleracea); test: Inhibition of Stellaria media protoporphyinogen oxidase assessed as herbicidal activity at 100 g/ha measured after 21 days after treatment under greenhouse by time-course analysis; set-up: scale not given: the % may be the effect or the level left
[8] = target: T1, Protoporphyrinogen oxidase 2 (Spinacia oleracea); test: Inhibition of Stellaria media protoporphyinogen oxidase assessed as herbicidal activity at 50 g/ha measured after 9 days after treatment under greenhouse by time-course analysis; set-up: scale not given: the % may be the effect or the level left
[9] = tested on: Veronica hederifolia; test: Herbicidal activity against Veronica hederaefolia assessed as killing measured after 21 days after treatment by post-emergence herbicidal activity assay; type: functional
[10] = tested on: Viola arvensis; test: Herbicidal activity against Viola arvensis assessed as killing measured after 21 days after treatment by post-emergence herbicidal activity assay; type: functional
[11] = tested on: Stellaria media; test: Herbicidal activity against Stellaria media assessed as killing measured after 21 days after treatment by post-emergence herbicidal activity assay; type: functional
[12] = tested on: Tripleurospermum inodorum; test: Herbicidal activity against Tripleurospermum maritimum subsp. inodorum assessed as killing measured after 21 days after treatment by post-emergence herbicidal activity assay; type: functional
[13] = tested on: Galium aparine; test: Herbicidal activity against Galium aparine assessed as killing measured after 21 days after treatment by post-emergence herbicidal activity assay; type: functional
[14] = target: T1, Protoporphyrinogen oxidase 2 (Spinacia oleracea); test: Inhibition of Stellaria media protoporphyinogen oxidase assessed as herbicidal activity at 100 g/ha measured after 1 days after treatment under greenhouse by time-course analysis
[15] = target: T1, Protoporphyrinogen oxidase 2 (Spinacia oleracea); test: Inhibition of Stellaria media protoporphyinogen oxidase assessed as herbicidal activity at 0.3 g/ha measured after 14 days after treatment under greenhouse by time-course analysis; set-up: scale not given: the % may be the effect or the level left

Row | Compound | Activity [1] [%] | ED90 [2] [gAi/ha] | ED90 [3] [gAi/ha] | ED90 [4] [gAi/ha] | ED90 [5] [gAi/ha] | ED90 [6] [gAi/ha] | Activity [7] [%] | Activity [8] [%] | ED90 [9] [gAi/ha] | ED90 [10] [gAi/ha] | ED90 [11] [gAi/ha] | ED90 [12] [gAi/ha] | ED90 [13] [gAi/ha] | Activity [14] | Activity [15] [%]
1 | CCOC(=O)C(Cl)Cc1cc(-n2nc(C)n(C(F)F)c2=O)c(F)cc1Cl (stereo not given) | > 90 | 1 | 5 | 10 | 1.5 | 1.5 | – | – | – | – | – | – | – | – | –
2 | COC(=O)c1cc(Oc2ccc(Cl)cc2Cl)ccc1[N+](=O)[O-] | – | 30 | 20 | 100 | 15 | 50 | < 90 | – | – | – | – | – | – | – | –
3 | N#Cc1cc(I)c(O)c(I)c1 [IOXYNIL] | – | – | – | – | – | – | – | 90 | 50 | 50 | 50 | 30 | 100 | – | –
4 | Cc1cc(Cl)ccc1O[C@@H](C)C(=O)O [MECOPROP-P] | – | – | – | – | – | – | – | – | 300 | 1000 | 100 | 1000 | 300 | Active | –
5 | COC(=O)c1ccccc1S(=O)(=O)NC(=O)Nc1nc(C)nc(OC)n1 [METSULFURON-METHYL] | – | – | – | – | – | – | – | – | 50 | 5 | 0.3 | 0.3 | >100 | – | 90
